Laboratory results taken from PMC12018048, “Intranasal kisspeptin administration rapidly stimulates gonadotropin release in humans” (eBioMedicine, 2025).

Test system: plasma LH
Test: Intranasal kisspeptin-54, plasma LH in adult C57BL/6J male mice
Format: in vivo, mouse
Conditions: intranasal, 25 min post administration, N = 2
Method: Saline (placebo) or kisspeptin-54 were intranasally administered using a customised and unsharpened 2 mm long and 0.3 mm wide hypodermic needle (BD PrecisionGlide™; 30G; ref. 305106). Male mice were restrained and a single volume of 30 μL of the solution was delivered in one randomly chosen nostril with either 0.9% saline or different concentrations of kisspeptin-54 (1, 3, 12.8, 30, or 50 nM; equivalent to 0.001–0.05 nmol/kg). The protocol involved N = 5 mice per group, except concentrations 12.8 nM where N = 6 and 30 nM where N = 7. […] LH levels were assessed using a tail-tip serial blood sampling as previously reported.[64]^,[65] Briefly, samples containing 4 μL of whole blood were collected every 10 min over a 70-min-long period from each animal. The first sampling point was taken as baseline LH level (−5 min), and saline or kisspeptin-54 were administered at timepoint 0 min. Whole blood was collected into Eppendorf tubes pre-loaded with 50 μL of 0.1 M phosphate-buffered saline (PBS)-0.05% Tween, thoroughly mixed, and snap-frozen with dry ice and stored at −80 °C.
LH levels were measured using an established in-house and ultrasensitive mouse LH ELISA method as previously validated.[66] A primary coating antibody (bovine LHβ subunit, 518B7; L. Sibley; University of California, UC Davis, RRID AB_2756886) was used at a 1:1000 dilution in combination with a detection primary antibody (rabbit LH antiserum, AFP240580Rb, RRID AB_2665533; NIDDK- NHPP) used at 1:10,000 dilution, and a secondary horseradish peroxidase-conjugated antibody (goat anti-rabbit; Vector Laboratories, PI-1000, RRID AB_2336198) used at 1:10,000 dilution. The assay standard curve used a mouse LH-RP (AFP5306A, A. F. Parlow, National Hormone and Peptide Program; supplied by Golden West BioSolutions, California, USA; catalogue # TLIA1053.03). The assay sensitivity of this LH ELISA was 0.04 ng/mL, intra-assay coefficient of variation 4.1%, and inter-assay coefficient of variation 7.3%.
Statistical analyses were performed using GraphPad Prism (version 9.4.1). Data are presented as mean ± SEM. Normality of the data was determined using the Shapiro–Wilk test. The analysis considered increment in LH levels when average post-administration values were above significance (P < 0.05) compared to basal levels (−5 min) using repeated measures two-way ANOVA with Fishers least significant difference (LSD) test. Integrated LH response to kisspeptin-54 administration as indicated using the area under the curve (AUC) analysis when all peaks were above baseline values. The difference in AUC between groups was compared by one-way ANOVA with Fisher’s LSD test. In all cases, P < 0.05 was considered statistically significant.

Which “Plasma LH response to the fluorescently tagged peptide” value does the source give for “Dye-C-GTSLSPPPESSGSRQQPGLSAPHSRQIPAPQGAVLVQREKDLPNYNWNSFGLRF [kisspeptin-54-D2, Kisspeptin-54 labelled with a D2 fluorescent probe, developed by Cisbio Bioassays]” here?
The value was “robust LH increase”.
